Assay results reported in patent US20230355646A1, “AUTOPHAGY ACTIVATOR” (Resonac Corporation, priority 2020, published 2023).

How the values were obtained:
[1] = system: LC3 gene; experiment: LC3 gene expression promoting effect in human neuroblastoma SH-SY5Y in the presence of amyloid β; type: cell-based
Procedure: (§1) In the presence of an autophagy activator, the expression levels of the LC3 gene, ATG5 gene, and ATG7 gene in human neuroblastoma (SH-SY5Y; obtained from ATCC) were measured by the following test method, and the effect of promoting the expression of the LC3 gene, ATG5 gene, and ATG7 gene by an autophagy activator was evaluated.
(§2) In the following examples and comparative examples, tests were performed by adding amyloid β, which is known to cause a decrease in autophagy in nerve cells, to each medium.
(§3) SH-SY5Y cells were prepared at a seeding density of 10000 cells/cm^2 and cultured for 24 hours in D-MEM medium/Ham's F-12 medium (manufactured by Sigma-Aldrich) to which 10% fetal bovine serum (manufactured by MP Biomedicals) was added. Next, in Example 15, the methyl hesperidin DMSO solution was added to the medium such that the final concentration of methyl hesperidin was 10^−3% (V/V) and the final concentration of DMSO was 0.1% (V/V). […]
(§4) Then, using Nucleospin (registered trademark) RNA kit (manufactured by Takara Bio Inc.), RNA was extracted from SH-SY5Y cells in each example, and cDNA was synthesized from the obtained RNA. Next, using this cDNA as a template, by quantitative real-time PCR, the expression level of each gene was quantified using primers (manufactured by Takara Bio Inc.) specific to the LC3 gene, ATG5 gene, and ATG7 gene, respectively. […]

[2] = system: ATG7 gene; experiment: ATG7 gene expression promoting effect in human neuroblastoma SH-SY5Y in the presence of amyloid β; type: cell-based
Procedure: as §1, §2, §3, §4

[3] = SH-SY5Y cells with amyloid β, compared to DMSO and amyloid β of Comparative Example 5
[4] = SH-SY5Y cells, 20 μM amyloid β present, 10^−2% (V/V) methyl hesperidin or hesperidin, additional ingredient where in the example, 48 hours, Reference Example 3 = 1.00

`COc1ccc([C@@H]2CC(=O)c3c(O)cc(O[C@@H]4O[C@H](CO[C@@H]5O[C@@H](C)[C@H](O)[C@@H](O)[C@H]5O)[C@@H](O)[C@H](O)[C@H]4O)cc3O2)cc1O` [Comparative Example 2, hesperidin] was tested, and the “expression level of the LC3 gene (in words)” value [1, 3] was “increased”, the “Relative gene expression level LC3” value [1, 4] was 2.41 and the “expression level of the ATG7 gene (in words)” value [2, 3] was “increased”. The “Relative gene expression level ATG7” value [2, 4] was 2.31.
